Legend:
human brain organoids = assay: TLX agonist activity in human brain organoids (RNA expression of NSC and immature neuron genes); assay type: cell-based; conditions: 25 μM for 3 days, organoids at 68 days; compared to controls; FIG. 13
Source text: Human induced pluripotent cells (iPSCs) were used to generate brain organoids using a modified Pasca protocol as previously described. See, Manganas, et al. (Sci Rep […], 11: 5546) and Pasca, et al. (Nat. Methods 2015, 12: 671-678), which are incorporated herein by reference. Within 2 months, the protocol produces organoids with a variety of cell types that mimic early human brain (neural stem cells, progenitors, different types of neurons at different maturation stage, astrocytes, oligodendrocytes). About 300 organoids can be generated per batch and thus the model provides for testing of different experimental paradigms in the same batch. Organoids were treated at 68-days with 25 μM of reference compound 29, test compounds 95 and […]), or vehicle (0.03N HCl) for 3 days, after which they were processed to examine the expression of NSC genes (PAX6, BLBP) and immature neuron genes (PROM1, DCX).

TLX LBD = TLX LBD (Homo sapiens (Human), UniProt Q9Y466); assay: ALPHA screen assay for TLX LBD and coactivator peptide recruitment; assay type: biochemical; conditions: for EC50 / Average ALPHA signal at 200 μM (std. dev.): Table 3; for Average ALPHA signal at 200 μM (std. dev.): mean (std. dev.); for Normalized fold increase at 200 μM: Table 2
Chain of TLX LBD (Q9Y466 155-383): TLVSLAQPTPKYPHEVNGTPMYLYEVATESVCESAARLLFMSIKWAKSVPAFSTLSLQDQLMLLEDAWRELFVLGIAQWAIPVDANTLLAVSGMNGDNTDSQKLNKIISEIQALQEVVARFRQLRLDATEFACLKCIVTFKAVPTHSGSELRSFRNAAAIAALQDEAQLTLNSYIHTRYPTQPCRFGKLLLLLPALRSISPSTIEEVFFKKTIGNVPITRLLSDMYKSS
Procedure: Assays were performed according to the manufacturer's protocol (PerkinElmer, USA), with the following modifications: Ligands were tested for TLX-coactivator binding in 50 mM phosphate buffer, 150 mM NaCl, pH 7, 1 mM DTT and 100 μM CHAPS. Ligands were dissolved and diluted in DMSO as stocks and were prepared in assay buffer from the original stock in the 100% DMSO and added to the assay plate. Biotinylated SRC peptide and polyhistidine tagged TLX LBD were diluted in assay buffer, subsequently added to respective ALPHA beads, under low light. The plates were spun down, mixed with a shaker and incubated for 120 minutes and read on a TECAN Plate reader using the manufacturer's protocol.

[1] = tested on: neural stem and progenitor cells in the adult hippocampal neurogenic niche; assay: In vivo neurogenesis study: neural stem cell proliferation (CldU) after oral dosing; parameters: species or system C57BL/6J mice; conditions: 3 mg/kg oral gavage daily for 5 days; CldU labelling; FIG. 11
Procedure: Small Molecule Oral Gavage Delivery and Chloro-Deoxyuridine (CldU) Injections. Small molecule candidates (3 mg/kg of animal) were delivered through oral gavage to animals (N=3-4) each day at the same time for 5 consecutive days. On the final day, animals received four consecutive IP injections of CldU (85 mg/kg dissolved in sterile saline) 2 hr apart.
Immunohistochemistry. Animals were anesthetized and perfused transcardially with 30 ml of phosphate buffered saline (PBS) followed by 30 ml of 4% (w/v) ice cold paraformaldehyde (PFA) in PBS. Brains were post fixed in 4% PFA solution overnight at 4° C. PFA was replaced with PBS and tissues were kept at 4° C. for further use. Free floating serial sagittal sections of 50 μm thickness were cut using Vibratome 1500 sectioning system and collected in 5 parallel sets each containing 14 sections 250 μm apart from each other. […] Following initial permeabilization and blocking at room temperature (RT) for 2 hrs, sections were incubated with primary antibodies overnight at 4° C. Sections were then washed three times and incubated with fluorochrome-conjugated secondary antibodies for 2 hrs at RT. Sections were washed three times with PBS and mounted on slides with DakoCytomation Fluorescent Mounting Medium (DakoCytomation, Carpinteria, CA) as anti-fading agent.
Sections were counterstained with DAPI (5 μg/mL, Sigma) at 1:1000.
Confocal microscopy and stereology. Quantification and characterization of proliferating cell types was performed according to previously described optical dissector methods. […] An observer blind to experimental groups counted immunoreactive cells that had the mentioned properties below in every fifth sagittal section throughout the dentate gyrus. Neural stem cells were identified according to their triangular Sox2^+ nuclei located in SGZ with a GFAP^+ radial process spanning through granule cell layer.
For quantification that required analysis of phenotypic morphology and/or overlapping markers, 20 μm thick sections were scanned with confocal microscope (Zeiss LSM 710). 3D reconstruction and orthogonal views were acquired via ZEN2012 SP1 software (Zeiss, Thornwood, NY). Cells in the uppermost focal plane were excluded from the quantification. Total counts from 14 sections were multiplied by 10 to get the total number of cells in two dentate gyri. The ratio of CldU^+ cells among a certain cell type was calculated by dividing the CldU^+ cells by the total number of cells in that cell type.
Statistics. Statistical analysis was performed using GraphPad Prism 8.0 (GraphPad RRID:SCR_002798). Experiments involving 2 groups were compared using un-paired Student t-test. […]

Structure (SMILES) | expression of NSC genes (PAX6, BLBP) and immature neuron genes (PROM1, DCX) (human brain organoids) | EC50 (TLX LBD) [nM] | Average ALPHA signal at 200 μM (std. dev.) (TLX LBD) | cell proliferation of neural stem and progenitor cells in the adult hippocampal neurogenic niche [1] | Normalized fold increase at 200 μM (TLX LBD) [X]
CC(C)CCNc1ncccc1C(=O)N1CCN(Cc2ccccc2)C[C@@H]1Cc1ccccc1 [Compound 96] | substantially increased the expression levels of tested genes | 0.00315 | 2.41 (0.07) |  | 
CC(C)CCNc1ncccc1C(=O)N1CCN(Cc2ccccc2)C[C@H]1C [Compound 3, (R)-(4-benzyl-2-methylpiperazin-1-yl)(2-(isopentylamino)pyridin-3-yl)methanone] |  | 0.0281 | 2.49 (0.12) | increase in cell proliferation | 2.49
CC(C)CCNc1ncccc1C(=O)N1CCN(Cc2ccccc2)C[C@H]1Cc1ccccc1 [Compound 95] | substantially increased the expression levels of tested genes |  | 2.37 (0.19) |  | 
CC(C)CCNc1ncccc1C(=O)N1CCN(Cc2ccccc2)[C@@H](C)C1 [Compound 2, (S)-(4-benzyl-3-methylpiperazin-1-yl)(2-(isopentylamino)pyridin-3-yl)methanone] |  | 0.0637 | 2.45 (0.05) | increase in cell proliferation | 2.45
COC(=O)C[C@H]1CN(Cc2ccccc2)[C@H](C)CN1C(=O)c1cccnc1NCCC(C)C [Compound 76] |  | 0.0126 | 3.09 (0.18) |  | 
CC(C)CCNc1ncccc1C(=O)N1CCN(Cc2ccccc2)[C@H](C)C1 [Compound 1, (R)-(4-benzyl-3-methylpiperazin-1-yl)(2-(isopentylamino)pyridin-3-yl)methanone] |  | 0.0853 | 1.97 (0.07) | increase in cell proliferation | 1.97
CC(C)CCNc1ncccc1C(=O)N1CCN(Cc2ccccc2)CC1 [Compound 29, (4-benzylpiperazin-1-yl)(2-(isopentylamino)pyridin-3-yl)methanone, reference compound] | did not lead to a substantial difference in gene expression | 0.0361 | 2.52 (0.09) |  | 
CC(C)CCNc1ncccc1C(=O)N1CCN(Cc2ccccc2)C[C@H]1CC(C)C [Compound 93] |  |  | 3.46 (0.10) |  | 
CC(C)CCNc1ncccc1C(=O)N1CCN(Cc2ccccc2)C[C@@H]1C [Compound 4, (S)-(4-benzyl-2-methylpiperazin-1-yl)(2-(isopentylamino)pyridin-3-yl)methanone] |  | 0.0298 | 2.29 (0.09) | increase in cell proliferation | 2.29
C[C@H]1CN(C(=O)c2cccnc2NC2CC2)CCN1Cc1ccccc1 [Compound 91] |  |  | 1.48 (0.04) |  | 
CC(C)CCNc1ncccc1C(=O)N1CCN(CCC2CCN(C(=O)OC(C)(C)C)CC2)C[C@H]1C [Compound 53] |  | 0.00904 | 2.84 (0.05) |  | 

Source: patent publication US20240067625A1, “SMALL-MOLECULE MODULATORS OF THE ORPHAN NUCLEAR RECEPTOR TLX” (priority 2020, published 2024)
